This passage reports EC (150% of control) and melting point results from patent US9284321B2, “Piperazino[1,2-a]indol-1-ones and [1,4]diazepino[1,2-a]indol-1-one” (Hoffmann-La Roche Inc., priority 2012, dated 2016).

Data set [1] deals with human embryonic stem cell derived neural stem cells (NSCs). The data set is described as follows: Neural Stem Cell Proliferation Assay (neurogenesis assay, ATP levels by CellTiterGlo). Particulars: 96 h, compound concentration at which 150% activity of control (100%) is reached, NSC proliferation by ATP level after 4 days incubation, dose response 8 μM to 8 nM. The data set is classed as cell-based. The method, then:
Neurogenic properties of small molecules are determined based on the proliferation of human embryonic stem cell derived neural stem cells (NSCs) which were derived via a dual smad inhibition as previously described (Chambers, S. M., et al., Highly efficient neural conversion of human ES and iPS cells by dual inhibition of SMAD signaling, Nature biotechnology, 2009. 27(3): p. 275-80.)
Compounds respond is measured by the increase in cells based on ATP levels
(Promega:CellTiterGlo®) after an incubation period of 4 days.
NSCs are thawed and expanded over 3 passages. On the 14th day, NSCs are seeded in Polyornithin/Laminin coated 384 well plates at a cell density of 21′000 cells/cm^2 in a media volume of 38 μl.
4 hours after cell seeding, compound solutions are added at a volume of 2 μl. Stock solutions of the compounds (water, 5% DMSO) are diluted to obtain a dose response (11 points, dilution factor is 2), ranging from 8 μM to 8 nM. Controls are run to consistently determine the neurogenic properties of the cells:
Negative (neutral) control is cell culture Media (final DMSO concentration: 0.25%).
• 1. cell culture Media+100 ng/ml FGF2 (final DMSO concentration: 0.1%) • 2. cell culture Media+20 ng/ml EGF (final DMSO concentration: 0.1%) • 3. cell culture Media+100 ng/ml Wnt3a (final DMSO concentration: 0.1%)
After 4 days incubation at 37° C., 5% CO2, the amount of ATP per well is quantified. The ATP concentration is proportional to the cell number. ATP is quantified by using the Promega CellTiterGlo® kit. The CellTiterGlo® reagents contain a cell lysis buffer, a thermo stable luciferase (UltraGlo™ recombinant luciferase), magnesium and luciferin. Luciferin reacts with ATP producing oxyluciferin, AMP and light. The luminescence signal is proportional to the ATP content.
The value of negative (neutral) control is determined for each assay plate by taking the average of 16 negative control wells. The neurogenic compound response is calculated for each compound as (compound/Negative Control)*100.
The values of EC150 from the dose response curve are determined for each test compound. The EC150 is the compound concentration at which 150% activity of control (100%) is reached.

For `O=C1NCCn2c1cc1cc(F)c(F)c(-c3ccc(F)c(F)c3)c12` [Example 44, 6-(3,4-Difluoro-phenyl)-7,8-difluoro-3,4-dihydro-2H-pyrazino[1,2-a]indol-1-one], the melting point (usually the temperature of the solid-liquid transition) is 305 °C. The same compound yielded an EC (150% of control) in data set [1] of 0.3 µM.
`O=C1NCCn2c1cc1cc(F)c(F)c(-c3ccc(Cl)cc3)c12` [Example 45, 6-(4-Chloro-phenyl)-7,8-difluoro-3,4-dihydro-2H-pyrazino[1,2-a]indol-1-one]: the melting point was 332.5 °C. Besides, the EC (150% of control) in data set [1] is 0.076 µM.
Turning to `O=C1NCCCn2c1cc1cc(Cl)cc(-c3ccc(F)c(F)c3)c12` [Example 46, 9-Chloro-7-(3,4-difluoro-phenyl)-2,3,4,5-tetrahydro-[1,4]diazepino[1,2-a]indol-1-one], the melting point came out at 230.5 °C. In data set [1], this compound gave an EC (150% of control) of 0.69 µM.
The compound `Cc1ccc(-c2cc(Cl)cc3cc4n(c23)CCCNC4=O)cc1` [Example 47, 9-Chloro-7-p-tolyl-2,3,4,5-tetrahydro-[1,4]diazepino[1,2-a]indol-1-one] showed a melting point of 227 °C. In data set [1], this compound yielded an EC (150% of control) of 0.6 µM.
As for `O=C1NCCCn2c1cc1cc(Cl)cc(-c3ccc(F)cc3)c12` [Example 48, 9-Chloro-7-(4-fluoro-phenyl)-2,3,4,5-tetrahydro-[1,4]diazepino[1,2-a]indol-1-one], the melting point was found to be 260 °C. The compound further returned an EC (150% of control) in data set [1] of 0.43 µM.
On to `O=C1NCCn2c1cc1cc(Cl)cc(-c3ccc(Cl)cc3)c12` [Example 49, 8-Chloro-6-(4-chloro-phenyl)-3,4-dihydro-2H-pyrazino[1,2-a]indol-1-one], for which the melting point stood at 320 °C. In data set [1], this compound gave an EC (150% of control) of 0.045 µM.
The corresponding values for `O=C1NCCn2c1cc1cc(Cl)cc(-c3ccc(F)c(F)c3)c12` [Example 50, 8-Chloro-6-(3,4-difluoro-phenyl)-3,4-dihydro-2H-pyrazino[1,2-a]indol-1-one] are 277.5 °C and 0.13 µM.
Turning to `O=C1NCCn2c1cc1cc(Cl)cc(-c3ccc(F)cc3)c12` [Example 51, 8-Chloro-6-(4-fluoro-phenyl)-3,4-dihydro-2H-pyrazino[1,2-a]indol-1-one], the melting point was determined as 298 °C. The compound also had an EC (150% of control) in data set [1] of 0.098 µM.
For `COc1ccc(-c2cc(Cl)cc3cc4n(c23)CCNC4=O)cc1` [Example 52, 8-Chloro-6-(4-methoxy-phenyl)-3,4-dihydro-2H-pyrazino[1,2-a]indol-1-one], the melting point amounted to 282.5 °C. The EC (150% of control) in data set [1] is 0.022 µM.
`O=C1NCCCn2c1cc1cc(Cl)cc(-c3ccc(Cl)cc3)c12` [Example 53, 9-Chloro-7-(4-chloro-phenyl)-2,3,4,5-tetrahydro-[1,4]diazepino[1,2-a]indol-1-one] had a melting point of 237 °C. Further, the EC (150% of control) in data set [1] is 0.15 µM.
Compound `COc1ccc(-c2cc(Cl)cc3cc4n(c23)CCCNC4=O)cc1` [Example 54, 9-Chloro-7-(4-methoxy-phenyl)-2,3,4,5-tetrahydro-[1,4]diazepino[1,2-a]indol-1-one] showed a melting point of 218 °C. In data set [1], this compound displayed an EC (150% of control) of 0.07 µM.
Consider `Cc1cc(-c2ccc(F)c(F)c2)c2c(c1)cc1n2CCCNC1=O` [Example 55, 7-(3,4-Difluoro-phenyl)-9-methyl-2,3,4,5-tetrahydro-[1,4]diazepino[1,2-a]indol-1-one], for which the melting point worked out at 231 °C. This compound displayed an EC (150% of control) in data set [1] of 2.8 µM.
Regarding `COc1ccc(-c2cc(C)cc3cc4n(c23)CCCNC4=O)cc1` [Example 56, 7-(4-Methoxy-phenyl)-9-methyl-2,3,4,5-tetrahydro-[1,4]diazepino[1,2-a]indol-1-one], the melting point was determined as 208 °C. Besides, in data set [1], the EC (150% of control) was 0.35 µM.
Taken in the same sequence, the figures for `Cc1cc(-c2ccc(F)cc2)c2c(c1)cc1n2CCCNC1=O` [Example 57, 7-(4-Fluoro-phenyl)-9-methyl-2,3,4,5-tetrahydro-[1,4]diazepino[1,2-a]indol-1-one] were 234.5 °C and 1.44 µM.
`Cc1cc(-c2ccc(Cl)cc2)c2c(c1)cc1n2CCCNC1=O` [Example 58, 7-(4-Chloro-phenyl)-9-methyl-2,3,4,5-tetrahydro-[1,4]diazepino[1,2-a]indol-1-one] had a melting point of 258.5 °C. The EC (150% of control) in data set [1] was 1.51 µM.
For `Cc1cc(-c2ccc(Cl)cc2)c2c(c1)cc1n2CCNC1=O` [Example 59, 6-(4-Chloro-phenyl)-8-methyl-3,4-dihydro-2H-pyrazino[1,2-a]indol-1-one], the melting point is 269 °C. The compound further yielded an EC (150% of control) in data set [1] of 0.18 µM.
As to `Cc1cc(-c2ccc(F)c(F)c2)c2c(c1)cc1n2CCNC1=O` [Example 60, 6-(3,4-Difluoro-phenyl)-8-methyl-3,4-dihydro-2H-pyrazino[1,2-a]indol-1-one], the melting point was 249.5 °C. The compound further had an EC (150% of control) in data set [1] of 0.71 µM.
As to `COc1ccc(-c2cc(C)cc3cc4n(c23)CCNC4=O)cc1` [Example 61, 6-(4-Methoxy-phenyl)-8-methyl-3,4-dihydro-2H-pyrazino[1,2-a]indol-1-one], the melting point is 245 °C. This compound also had an EC (150% of control) in data set [1] of 0.059 µM.
`Cc1cc(-c2ccc(F)cc2)c2c(c1)cc1n2CCNC1=O` [Example 62, 6-(4-Fluoro-phenyl)-8-methyl-3,4-dihydro-2H-pyrazino[1,2-a]indol-1-one] displayed a melting point of 257 °C. The same compound came in with an EC (150% of control) in data set [1] of 0.32 µM.
The compound `CN1CCn2c(cc3cc(F)cc(-c4ccc(F)cc4)c32)C1=O` [Example 63, 8-Fluoro-6-(4-fluoro-phenyl)-2-methyl-3,4-dihydro-2H-pyrazino[1,2-a]indol-1-one] gave a melting point of 212 °C. The EC (150% of control) in data set [1] was found to be 0.6 µM.
For the compound `Cc1c2n(c3c(-c4ccc(F)c(F)c4)cc(Cl)cc13)CCNC2=O` [Example 64, 8-Chloro-6-(3,4-difluoro-phenyl)-10-methyl-3,4-dihydro-2H-pyrazino[1,2-a]indol-1-one], the melting point stood at 235.5 °C. This compound gave an EC (150% of control) in data set [1] of 0.12 µM.
Taken in the same sequence, the figures for `Cc1c2n(c3c(-c4ccc(Cl)cc4)cc(Cl)cc13)CCNC2=O` [Example 65, 8-Chloro-6-(4-chloro-phenyl)-10-methyl-3,4-dihydro-2H-pyrazino[1,2-a]indol-1-one] were 236.5 °C and 0.019 µM.
Compound `Cc1c2n(c3c(-c4ccc(F)cc4)cc(Cl)cc13)CCNC2=O` [Example 66, 8-Chloro-6-(4-fluoro-phenyl)-10-methyl-3,4-dihydro-2H-pyrazino[1,2-a]indol-1-one] returned a melting point of 227.5 °C. The compound also gave an EC (150% of control) in data set [1] of 0.047 µM.
For the compound `COc1ccc(-c2cc(Cl)cc3c(C)c4n(c23)CCNC4=O)cc1` [Example 67, 8-Chloro-6-(4-methoxy-phenyl)-10-methyl-3,4-dihydro-2H-pyrazino[1,2-a]indol-1-one], the melting point came out at 264 °C. Moreover, in data set [1], the EC (150% of control) was 0.008 µM.
`Cc1c2n(c3c(-c4ccc(F)c(F)c4)cc(Cl)cc13)CCCNC2=O` [Example 68, 9-Chloro-7-(3,4-difluoro-phenyl)-11-methyl-2,3,4,5-tetrahydro-[1,4]diazepino[1,2-a]indol-1-one] gave a melting point of 254 °C. Further, the EC (150% of control) in data set [1] turned out to be 0.12 µM.
Turning to `Cc1c2n(c3c(-c4ccc(Cl)cc4)cc(Cl)cc13)CCCNC2=O` [Example 69, 9-Chloro-7-(4-chloro-phenyl)-11-methyl-2,3,4,5-tetrahydro-[1,4]diazepino[1,2-a]indol-1-one], the melting point is 271 °C. In addition, the EC (150% of control) in data set [1] was 0.061 µM.
In turn, `Cc1c2n(c3c(-c4ccc(F)cc4)cc(Cl)cc13)CCCNC2=O` [Example 70, 9-Chloro-7-(4-fluoro-phenyl)-11-methyl-2,3,4,5-tetrahydro-[1,4]diazepino[1,2-a]indol-1-one] displayed a melting point of 260 °C. For the same compound, the EC (150% of control) in data set [1] stood at 0.063 µM.
In turn, `COc1ccc(-c2cc(Cl)cc3c(C)c4n(c23)CCCNC4=O)cc1` [Example 71, 9-Chloro-7-(4-methoxy-phenyl)-11-methyl-2,3,4,5-tetrahydro-[1,4]diazepino[1,2-a]indol-1-one] returned a melting point of 240.5 °C. The compound also had an EC (150% of control) in data set [1] of 0.021 µM.
Consider `Cc1c2n(c3c(-c4ccc(F)c(F)c4)cc(F)cc13)CCNC2=O` [Example 72, 6-(3,4-Difluoro-phenyl)-8-fluoro-10-methyl-3,4-dihydro-2H-pyrazino[1,2-a]indol-1-one], for which the melting point stood at 229.5 °C. Moreover, the EC (150% of control) in data set [1] stood at 0.12 µM.
